Reference: US8809341B2, “2,4-pyrimidinediamine compounds and uses as anti-proliferative agents” (Rigel Pharmaceuticals, Inc., priority 2003, dated 2014)

How the values were obtained:
A549 cells = test: in vitro antiproliferation assay, A549 (lung); type: cell-based
Protocol: (§1) The IC50 values of various compounds against a various different tumor cell lines were determined using standard in vitro antiproliferation assays. The tumor cell lines tested were as follows: A549 (lung); H1299 (lung), ACHN (kidney/p53 wt), CAKI (renal cell carcinoma), NCI-H460 (lung); HCT116 (colon/p53w0; HELA (cervix/p53 wt), HUH7 (liver/p53 wt), HUVEC (primary endothelial), LNCAP (prostate), HT-29 (colon); MCF-7 (breast); MCF-7 (breast/ER positive), MDA MB435S (breast); MDA MB231 (breast/ER negative), DU145 (prostate); BxPC-3 (pancreatic); SKOV-3 (ovarian); HepG2 (hepatic), NDHF primary normal human dermal fibroblast), SKMEL28 (breast/p53mut), SKMEL5 (breast/p53 wt), U20S (bone) and PC3 (prostate). […] A blank indicates the specified compound was not tested against the specified cell line.

H1299 cells = test: in vitro antiproliferation assay, H1299 (lung); type: cell-based
Protocol: as §1

[1] = in vitro antiproliferation, A549 (lung) cells, Table 4, compounds with no designated stereochemistry tested as racemate
[2] = in vitro antiproliferation, H1299 (lung) cells, Table 4, compounds with no designated stereochemistry tested as racemate
[3] = IC50 class against A549 (lung) tumor cells
[4] = IC50 class against H1299 (lung) tumor cells
[5] = Homo sapiens, IC50 class against A549 (lung) tumor cells
[6] = Homo sapiens, NCI-H1299, IC50 class against H1299 (lung) tumor cells
[7] = A549 (lung) cells, antiproliferation

| Compound | IC50 (A549 cells; [3]) [µM] | IC50 (H1299 cells; [4]) [µM] | further results |
| --- | --- | --- | --- |
| O=C1Nc2cc(Nc3nc(Nc4cccc(-c5ncco5)c4)ncc3F)ccc2OC1CCO (racemic) [compound 237] | – | – | IC50 (A549 cells; [1]): ≤ 20 µM; IC50 (H1299 cells; [2]): ≤ 20 µM |
| O=C1Nc2cc(Nc3nc(Nc4cccc(-c5cnco5)c4)ncc3F)ccc2OC1CCO (racemic) [compound 238] | – | – | IC50 (A549 cells; [1]): ≤ 20 µM; IC50 (H1299 cells; [2]): ≤ 20 µM |
| COc1cc(Nc2ncc(F)c(Nc3ccc4c(c3)NC(=O)C(C)S4(=O)=O)n2)cc(OC)c1 (racemic) [compound 250] | – | – | IC50 (A549 cells; [1]): ≤ 20 µM; IC50 (H1299 cells; [2]): ≤ 20 µM |
| Cc1cc(C)cc(Nc2ncc(F)c(Nc3ccc4c(c3)NC(=O)C(C)S4(=O)=O)n2)c1 (racemic) [compound 251] | – | – | IC50 (A549 cells; [1]): ≤ 20 µM; IC50 (H1299 cells; [2]): ≤ 20 µM |
| COc1ccc(Nc2ncc(F)c(Nc3ccc4c(c3)NC(=O)C(C)S4)n2)cc1F (racemic) [compound 288] | – | – | IC50 (A549 cells; [1]): ≤ 20 µM; IC50 (H1299 cells; [2]): ≤ 20 µM |
| CNC(=O)COc1cccc(Nc2ncc(F)c(NC3CCC3)n2)c1 [compound 109] | ≤ 20 | ≤ 20 | – |
| CCOC(=O)N1CCN(c2ccc(Nc3ncc(F)c(N(C)C4CCC4)n3)cc2)CC1 [compound 126] | ≤ 20 | ≤ 20 | – |
| CN(c1nc(Nc2cccc(N3CCOCC3)c2)ncc1F)C1CCC1 [compound 127] | ≤ 20 | ≤ 20 | – |
| CC(=O)N1CCN(c2cccc(Nc3ncc(F)c(N(C)C4CCC4)n3)c2)CC1 [compound 128] | ≤ 20 | ≤ 20 | – |
| CN1CCN(c2cccc(Nc3ncc(F)c(N(C)C4CCC4)n3)c2)CC1 [compound 129] | ≤ 20 | ≤ 20 | – |
| CCOC(=O)N1CCN(c2cccc(Nc3ncc(F)c(N(C)C4CCC4)n3)c2)CC1 [compound 130] | ≤ 20 | ≤ 20 | – |
| O=C(Nc1ccc(Nc2ncc(F)c(NC3CCC3)n2)cc1)c1ccccc1 [compound 131] | ≤ 20 | ≤ 20 | – |
| Fc1cnc(Nc2ccc(N3CCOCC3)cc2)nc1NC1CCC1 [compound 132] | ≤ 20 | ≤ 20 | – |
| CC(=O)N1CCN(c2ccc(Nc3ncc(F)c(NC4CCCC4)n3)cc2)CC1 [compound 133] | ≤ 20 | ≤ 20 | – |
| CN1CCN(c2ccc(Nc3ncc(F)c(NC4CCCC4)n3)cc2)CC1 [compound 134] | ≤ 20 | ≤ 20 | – |
| Fc1cnc(Nc2cccc(N3CCOCC3)c2)nc1NC1CCCC1 [compound 135] | ≤ 20 | ≤ 20 | – |
| CC(=O)N1CCN(c2cccc(Nc3ncc(F)c(NC4CCCC4)n3)c2)CC1 [compound 136] | ≤ 20 | ≤ 20 | – |
| CN1CCN(c2cccc(Nc3ncc(F)c(NC4CCCC4)n3)c2)CC1 [compound 137] | ≤ 20 | ≤ 20 | – |
| CC(=O)N(C)c1ccc(Nc2ncc(F)c(NC3CCCCC3)n2)cc1 [compound 150] | ≤ 20 | ≤ 20 | – |
| CN1CCN(c2ccc(Nc3ncc(F)c(NC4CCCCC4)n3)cc2Cl)CC1 [compound 153] | ≤ 20 | ≤ 20 | – |
| CC(=O)N1CCN(c2ccc(Nc3ncc(F)c(NC4CCC4)n3)cc2)CC1 [compound 154] | ≤ 20 | ≤ 20 | – |
| CN1CCN(c2ccc(Nc3ncc(F)c(NC4CCCCC4)n3)cc2)CC1 [compound 155] | ≤ 20 | ≤ 20 | – |

| Compound | IC50 (A549 cells; [3]) [µM] | IC50 (H1299 cells; [4]) [µM] | further results |
| --- | --- | --- | --- |
| Cc1cc(Nc2ncc(F)c(NC3CCC3)n2)ccc1N1CCN(C)CC1 [compound 166] | ≤ 20 | ≤ 20 | – |
| CCN1CCN(c2ccc(Nc3ncc(F)c(NC4CCC4)n3)cn2)CC1 [compound 167] | ≤ 20 | ≤ 20 | – |
| CCN1CCN(c2ccc(Nc3ncc(F)c(NC4CCCC4)n3)cn2)CC1 [compound 168] | ≤ 20 | ≤ 20 | – |
| CCN1CCN(c2ccc(Nc3ncc(F)c(NC4CCCCC4)n3)cn2)CC1 [compound 169] | ≤ 20 | ≤ 20 | – |
| Cc1cc(Nc2ncc(F)c(NC3CCC3)n2)cnc1N1CCN(C)CC1 [compound 171] | ≤ 20 | ≤ 20 | – |
| Cc1cc(Nc2ncc(F)c(NC3CCCC3)n2)cnc1N1CCN(C)CC1 [compound 172] | ≤ 20 | ≤ 20 | – |
| Cc1cc(Nc2ncc(F)c(NC3CCCCC3)n2)cnc1N1CCN(C)CC1 [compound 173] | ≤ 20 | ≤ 20 | – |
| CN1CCN(c2ccc(Nc3ncc(F)c(NC4CCC4)n3)cc2CO)CC1 [compound 174] | ≤ 20 | ≤ 20 | – |
| NC(=O)c1ccc(Nc2ncc(F)c(NC3CCCC3)n2)cc1 [compound 175] | ≤ 20 | > 20 | – |
| CCN(CC)CCNC(=O)c1ccc(Nc2ncc(F)c(NC3CCCC3)n2)cc1 [compound 176] | ≤ 20 | ≤ 20 | – |
| COC(=O)CNC(=O)c1ccc(Nc2ncc(F)c(NC3CCCC3)n2)cc1 [compound 177] | ≤ 20 | ≤ 20 | – |
| CN1CCN(c2ccc(Nc3ncc(F)c(NC4CC(C)(C)N(C)C(C)(C)C4)n3)cc2)CC1 [compound 178] | ≤ 20 | ≤ 20 | – |
| CN1CCN(c2cccc(Nc3ncc(F)c(NC4CC(C)(C)N(C)C(C)(C)C4)n3)c2)CC1 [compound 179] | ≤ 20 | ≤ 20 | – |
| CN1CCN(c2ccc(Nc3ncc(F)c(NC4CC(C)(C)N(C)C(C)(C)C4)n3)cc2Cl)CC1 [compound 180] | ≤ 20 | ≤ 20 | – |
| Cc1cc(Nc2ncc(F)c(NC3CC(C)(C)N(C)C(C)(C)C3)n2)ccc1N1CCN(C)CC1 [compound 181] | ≤ 20 | ≤ 20 | – |
| CN1CCN(c2ccc(Nc3ncc(F)c(NC4CC(C)(C)N(C)C(C)(C)C4)n3)cc2C(F)(F)F)CC1 [compound 182] | ≤ 20 | ≤ 20 | – |
| CCN1CCN(c2ccc(Nc3ncc(F)c(NC4CC(C)(C)N(C)C(C)(C)C4)n3)cn2)CC1 [compound 183] | ≤ 20 | ≤ 20 | – |
| Cc1cc(Nc2ncc(F)c(NC3CC(C)(C)N(C)C(C)(C)C3)n2)cnc1N1CCN(C)CC1 [compound 184] | ≤ 20 | ≤ 20 | – |
| CCOC(=O)N1CCC(Nc2nc(Nc3ccc(N4CCN(C)CC4)cc3)ncc2F)CC1 [compound 185] | ≤ 20 | ≤ 20 | – |
| CCOC(=O)N1CCC(Nc2nc(Nc3cccc(N4CCN(C)CC4)c3)ncc2F)CC1 [compound 186] | ≤ 20 | ≤ 20 | – |
| CCOC(=O)N1CCC(Nc2nc(Nc3ccc(N4CCN(C)CC4)c(Cl)c3)ncc2F)CC1 [compound 187] | ≤ 20 | ≤ 20 | – |
| CCOC(=O)N1CCC(Nc2nc(Nc3ccc(N4CCN(C)CC4)c(C)c3)ncc2F)CC1 [compound 188] | ≤ 20 | ≤ 20 | – |

| Compound | IC50 (A549 cells; [3]) [µM] | IC50 (H1299 cells; [4]) [µM] | further results |
| --- | --- | --- | --- |
| CCOC(=O)N1CCC(Nc2nc(Nc3ccc(N4CCN(C)CC4)c(C(F)(F)F)c3)ncc2F)CC1 [compound 189] | ≤ 20 | ≤ 20 | – |
| CCOC(=O)N1CCC(Nc2nc(Nc3ccc(N4CCN(C)CC4)nc3)ncc2F)CC1 [compound 190] | ≤ 20 | ≤ 20 | – |
| CC(=O)N1CCN(c2cccc(Nc3ncc(F)c(Nc4cc(C(C)(C)C)[nH]n4)n3)c2)CC1 [compound 200] | – | – | IC50 (A549 cells; [5]): ≤ 20 µM; IC50 (H1299 cells; [6]): ≤ 20 µM |
| CCOC(=O)N1CCN(c2cccc(Nc3ncc(F)c(Nc4cc(C(C)(C)C)[nH]n4)n3)c2)CC1 [compound 201] | – | – | IC50 (A549 cells; [5]): ≤ 20 µM; IC50 (H1299 cells; [6]): ≤ 20 µM |
| CC(=O)N1CCN(c2ccc(Nc3ncc(F)c(Nc4cc(C(C)(C)C)[nH]n4)n3)cc2)CC1 [compound 202] | – | – | IC50 (A549 cells; [5]): ≤ 20 µM; IC50 (H1299 cells; [6]): ≤ 20 µM |
| Cc1cc(C)cc(Nc2ncc(F)c(Nc3ccc4c(c3)NC(=O)C(C)O4)n2)c1 (stereo not drawn) [compound 230] | – | – | IC50 (H1299 cells; [2]): ≤ 20 µM |
| COc1cc(Nc2ncc(F)c(Nc3cc(OC)cc(OC)c3)n2)cc(OC)c1 [compound 840] | – | – | IC50 (H1299 cells; H1299 (lung) cells, in vitro antiproliferation): ≤ 20 µM |
| NC(=O)COc1ccc(Nc2ncc(F)c(Nc3ccc(OCC(N)=O)cc3)n2)cc1 [compound 971] | – | – | IC50 (A549 cells; [7]): > 20 µM |
| COC(=O)COc1ccc(Nc2nc(Nc3ccc(OCC(N)=O)cc3)ncc2F)cc1 [compound 973] | – | – | IC50 (A549 cells; [7]): > 20 µM |
| COC(=O)COc1cccc(Nc2ncc(F)c(Nc3cccc(O)c3)n2)c1 [compound 976] | – | – | IC50 (A549 cells; [7]): > 20 µM |
| COC(=O)COc1cccc(Nc2ncc(F)c(Nc3ccc(OC(C)C)cc3)n2)c1 [compound 977] | – | – | IC50 (A549 cells; [7]): > 20 µM |
| Oc1ccc(Nc2ncc(F)c(Nc3ccc(O)c(C(F)(F)F)c3)n2)cc1C(F)(F)F [compound 996] | – | – | IC50 (A549 cells; [7]): < 20 µM |
| Cc1cccc(Nc2ncc(F)c(Nc3cccc(C)c3)n2)c1 [compound 997] | – | – | IC50 (A549 cells; [7]): ≤ 20 µM |
| Cc1ccc(Nc2ncc(F)c(Nc3ccc(C)cc3)n2)cc1 [compound 998] | – | – | IC50 (A549 cells; [7]): > 20 µM |
| CNC(=O)COc1cccc(Nc2ncc(F)c(Nc3ccc(OCCC(=O)OC)cc3)n2)c1 [compound 1002] | – | – | IC50 (A549 cells; [7]): > 20 µM |
| CCOC(=O)CCOc1ccc(Nc2nc(Nc3cccc(OCC(=O)NC)c3)ncc2F)cc1 [compound 1003] | – | – | IC50 (A549 cells; [7]): > 20 µM |
| CNC(=O)COc1cccc(Nc2ncc(F)c(Nc3ccc(O)cc3)n2)c1 [compound 1004] | – | – | IC50 (A549 cells; [7]): > 20 µM |
| C=CCNc1ncc(F)c(Nc2ccc3c(c2)OCCO3)n1 [compound 1037] | > 20 | – | – |
| COc1ccc(Nc2ncc(F)c(Nc3ccc4c(c3)OCCO4)n2)c(OC)c1 [compound 1045] | > 20 | – | – |
| CC(C)(CC1CCC1)n1ncc2ccc(Nc3ncc(F)c(Nc4ccc(Cl)c(Cl)c4)n3)cc21 [compound 1103] | – | – | IC50 (H1299 cells; H1299 (lung) cells): > 20 µM |
| Cn1nc(-c2ccccc2)cc1Nc1nc(Nc2cccc(-c3ncco3)c2)ncc1F [compound 1161] | – | – | IC50 (A549 cells; Homo sapiens, A549 (lung) cells): ≤ 20 µM |
